The values that follow come from patent US20220054513A1, “COMBINATION COMPOSITIONS COMPRISING A BETA-LACTAMASE INHIBITOR” (VenatoRx Pharmaceuticals, Inc., priority 2018, published 2022).

This experiment deals with cefepime-resistant clinical isolates of Enterobacteriaceae and P. aeruginosa. Nature of the experiment: neutropenic murine thigh infection model, human simulated regimens. It counts as in vivo, mice. As to conditions: human simulated regimen (HSR) of 2 g cefepime alone q8 h; at 24 h; 30 strains. The text has this: The 2 g:0.5 g dose of cefepime:Compound 1 which is planned for clinical efficacy studies is supported by neutropenic murine thigh infection model studies using 30 cefepime-resistant clinical isolates of Enterobacteriaceae and P. aeruginosa.

Structures are written as SMILES.

As for `CO/N=C(\C(=O)N[C@@H]1C(=O)N2C(C(=O)[O-])=C(C[N+]3(C)CCCC3)CS[C@H]12)c1csc(N)n1` [FEP, cefepime], the “growth on average compared to the T=0 control” value is reported as “approximately 2.7 log10 CFU/thigh”.
